Here are results for one molecule from patent publication US12414924B2 (Duke University, priority 2016, dated 2025).

Series [1] addresses T1, wild-type (WT) ERα (Homo sapiens, UniProt P03372).
T1 construct: expressed in transfected cells; host or cells: Caov2 ovarian carcinoma cells; SKBR3 breast adenocarcinoma cells
T1 sequence (P03372 1-595): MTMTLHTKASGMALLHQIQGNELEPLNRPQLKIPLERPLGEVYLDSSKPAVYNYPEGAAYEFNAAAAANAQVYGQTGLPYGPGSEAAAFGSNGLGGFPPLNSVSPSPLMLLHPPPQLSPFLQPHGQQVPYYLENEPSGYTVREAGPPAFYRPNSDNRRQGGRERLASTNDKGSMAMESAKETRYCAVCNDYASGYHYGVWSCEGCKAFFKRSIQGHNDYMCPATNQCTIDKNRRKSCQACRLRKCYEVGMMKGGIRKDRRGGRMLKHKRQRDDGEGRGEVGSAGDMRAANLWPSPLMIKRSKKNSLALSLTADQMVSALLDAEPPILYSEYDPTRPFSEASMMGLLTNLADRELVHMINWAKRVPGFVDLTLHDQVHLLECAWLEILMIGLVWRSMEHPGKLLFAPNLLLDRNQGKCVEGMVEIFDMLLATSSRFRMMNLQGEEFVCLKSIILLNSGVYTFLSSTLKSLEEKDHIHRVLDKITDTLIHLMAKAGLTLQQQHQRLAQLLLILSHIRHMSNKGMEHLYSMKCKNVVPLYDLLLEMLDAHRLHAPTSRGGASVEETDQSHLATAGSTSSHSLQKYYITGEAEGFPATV
Briefly: ERE-luciferase reporter gene assay in Caov2 cells, wild-type receptor. Conditions: Caov2, in presence of 1 nM 17-β estradiol, 24 h. In kind it is cell-based. The procedure:
(§1) ExSite mutagenesis was performed using the corresponding primers as summarized in Table 1 below on a pENTR2B ERα WT construct using Pfu ultra taq polymerase. The primers were PNK phosphorylated. Following PCR amplification, the products were digested with DpnI at 37° C. for 1 hr, followed by overnight ligation at 16° C. Ligated products were transformed into DH5α bacterial cells and grown on kanamycin resistant plates. The pENTR clones were verified by sequencing and then swapped into the pcDNA-DEST vector using the Gateway system (Invitrogen) for expression analysis.
(§2) Caov2 ovarian carcinoma cells were grown in RPMI-1640 media (Gibco) supplemented with 8% Fetal Bovine Serum (FBS), Sodium Pyruvate (NaPyr) and non-essential amino acids (NEAA) and passaged every 2-3 days. SKBR3 breast adenocarcinoma cells were grown in DMEM media (Gibco) supplemented with 8% Fetal Bovine Serum (FBS), Sodium Pyruvate (NaPyr) and non-essential amino acids (NEAA) and passaged every 2-3 days. Cells were switched into a phenol-red free RPMI-1640 media supplemented with 8% charcoal stripped fetal bovine serum (CFS), NaPyr, and NEAA one day before plating for experiment. Cells were then plated in 96-well plates for experiment in the phenol red-free media an additional day before transfection.
(§3) The plots include data from five independent experiments and each value is an average of triplicates from each experiment. […]
On the technique in general: A reporter such as luciferase makes a cellular process visible.

The target of series [2] is T2, ERα LBD mutant Y537N (Homo sapiens, UniProt P03372, Y537N).
T2 construct: expressed in transfected cells; host or cells: Caov2 ovarian carcinoma cells; SKBR3 breast adenocarcinoma cells
T2 sequence (P03372 1-595 Y537N): T1 sequence (P03372 1-595) with Y537N
Briefly: ERE-luciferase reporter gene assay in Caov2 cells, Y537N mutant receptor. In kind it is cell-based. Conditions: Caov2, in presence of 1 nM 17-β estradiol, 24 h. The procedure:
as §1, §2, §3

Series [3] is described as follows: Reported Cmax in blood at doses used in prior clinical trials. In kind it is in vivo. As to conditions: human, read-out: Converted (M) Cmax. An excerpt: See Maximov et al., Current ClinicalPharmacology 8(2): 135-155 (2013). […] See Assessment Report for Fablyn, 2009 (EMA). […] See Gardner et al., J Clin Pharmacol 46(1): 52-58 (2006).
Series [4] addresses T3, ERα LBD mutant Y537C (Homo sapiens, UniProt P03372, Y537C).
T3 construct: expressed in transfected cells; host or cells: Caov2 ovarian carcinoma cells; SKBR3 breast adenocarcinoma cells
T3 sequence (P03372 1-595 Y537C): T1 sequence (P03372 1-595) with Y537C
Description: ERE-luciferase reporter gene assay in SKBR3 cells, Y537C mutant receptor. It counts as cell-based. Conditions: SKBR3, in presence of 1 nM 17-β estradiol, 24 h. The procedure:
as §1, §2, §3

For series [5], the target named is T3, ERα LBD mutant Y537C. Description: ERE-luciferase reporter gene assay in Caov2 cells, Y537C mutant receptor. It counts as cell-based. Conditions: Caov2, in presence of 1 nM 17-β estradiol, 24 h. The procedure: as §1, §2, §3
In series [6] the target is T1, wild-type (WT) ERα. Description: ERE-luciferase reporter gene assay in SKBR3 cells, wild-type receptor. In kind it is cell-based. Conditions: SKBR3, in presence of 1 nM 17-β estradiol, 24 h. The procedure:
as §1, §2, §3

The conditions of series [7]: PEARL trial, cited from earlier work.

Positions count from the first letter of the chain named. Where two headings read alike, the source gives them in different places.

In the case of `Oc1ccc2c(c1)CC[C@H](c1ccccc1)[C@@H]2c1ccc(OCCN2CCCC2)cc1` [Lasofoxifene], the IC90 (as a rule, the point of the concentration-response curve where the effect stands at 90%) was determined as 0.00668 nM in series [1]; 0.745 nM in series [2]; 5.9 nM in series [4]; 0.204 nM in series [5]; 3.3 nM in series [6]. In addition, the Cmax (in general, the peak of the concentration-time curve) amounted to 9e-09 M in series [3] (0.5 mg dose) and 1.55e-08 M in series [3] (1 mg dose). Also, in series [7] (placebo-controlled), the “risk of osteoporosis” value is recorded as “reduce the risk of osteoporosis”. Moreover, in series [7] (post-menopausal women with osteoporosis), the “risk of breast cancer” value was “reduced the risk of breast cancer in post-menopausal women with osteoporosis”.
